Data taken from PubChem BioAssay (NCI).
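Following 48 hours of exposure in 96-well plates, responses at five concentrations were used to interpolate endpoints linearly. At the TGI there is no net growth.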

Assays:
Experiment in all cases: NCI tumour cell line growth inhibition, 48 h
A498 renal = tested on: A498 renal
IGROV1 ovarian = tested on: IGROV1 ovarian
HT29 colon = tested on: HT29 colon
OVCAR-3 ovarian = tested on: OVCAR-3 ovarian
OVCAR-5 ovarian = tested on: OVCAR-5 ovarian
NCI-H226 lung = tested on: NCI-H226 lung
SNB-19 CNS = tested on: SNB-19 CNS
UACC-257 melanoma = tested on: UACC-257 melanoma
MDA-MB-231 breast = tested on: MDA-MB-231 breast
HCC-2998 colon = tested on: HCC-2998 colon
CAKI-1 renal = tested on: CAKI-1 renal
BT-549 breast = tested on: BT-549 breast
MDA-MB-435 = tested on: MDA-MB-435
SF-268 CNS = tested on: SF-268 CNS
HCT-116 colon = tested on: HCT-116 colon
A549 NSCLC = tested on: A549 NSCLC
SNB-75 CNS = tested on: SNB-75 CNS
M14 melanoma = tested on: M14 melanoma
HCT-15 colon = tested on: HCT-15 colon
HOP-92 NSCLC = tested on: HOP-92 NSCLC
NCI-H522 lung = tested on: NCI-H522 lung
KM12 colon = tested on: KM12 colon
NCI-H460 lung = tested on: NCI-H460 lung
HL-60(TB) leukemia = tested on: HL-60(TB) leukemia
T-47D breast = tested on: T-47D breast
NCI-H23 lung = tested on: NCI-H23 lung
LOX IMVI melanoma = tested on: LOX IMVI melanoma
NCI/ADR-RES ovarian = tested on: NCI/ADR-RES ovarian
UACC-62 melanoma = tested on: UACC-62 melanoma
EKVX NSCLC = tested on: EKVX NSCLC
HS 578T breast = tested on: HS 578T breast
SK-OV-3 ovarian = tested on: SK-OV-3 ovarian
TK-10 renal = tested on: TK-10 renal
SK-MEL-5 melanoma = tested on: SK-MEL-5 melanoma
OVCAR-4 ovarian = tested on: OVCAR-4 ovarian
SK-MEL-28 melanoma = tested on: SK-MEL-28 melanoma
DU-145 prostate = tested on: DU-145 prostate
SF-295 CNS = tested on: SF-295 CNS
CCRF-CEM leukemia = tested on: CCRF-CEM leukemia
RXF 393 renal = tested on: RXF 393 renal
SW-620 colon = tested on: SW-620 colon
U251 CNS = tested on: U251 CNS
K-562 leukemia = tested on: K-562 leukemia
MOLT-4 leukemia = tested on: MOLT-4 leukemia
ACHN renal = tested on: ACHN renal
MDA-N = tested on: MDA-N
PC-3 prostate = tested on: PC-3 prostate
MCF7 breast = tested on: MCF7 breast
RPMI-8226 leukemia = tested on: RPMI-8226 leukemia
HOP-62 NSCLC = tested on: HOP-62 NSCLC
UO-31 renal = tested on: UO-31 renal
786-0 renal = tested on: 786-0 renal
SK-MEL-2 melanoma = tested on: SK-MEL-2 melanoma
COLO 205 colon = tested on: COLO 205 colon
SN12C renal = tested on: SN12C renal
MALME-3M melanoma = tested on: MALME-3M melanoma
OVCAR-8 ovarian = tested on: OVCAR-8 ovarian
SF-539 CNS = tested on: SF-539 CNS
SR leukemia = tested on: SR leukemia

In the case of `CN(C)CCCCN1c2ccccc2Sc2ccc(N=[N+]=[N-])cc21`, the TGI (A498 renal) is reported as 21.5 µM, the TGI (IGROV1 ovarian) is reported as 11.7 µM and the TGI (HT29 colon) is reported as 5.22 µM. For the same compound, the TGI (OVCAR-3 ovarian) was 20 µM, the TGI (OVCAR-5 ovarian) was 13.5 µM and the TGI (NCI-H226 lung) was 17.7 µM. The TGI (SNB-19 CNS) was 23.5 µM, the TGI (UACC-257 melanoma) was 3.54 µM and the TGI (MDA-MB-231 breast) was 19.9 µM. For the same compound, the TGI (HCC-2998 colon) was 3.18 µM, the TGI (CAKI-1 renal) was 18.4 µM and the TGI (BT-549 breast) was 24.5 µM. It also gave a TGI (MDA-MB-435) of 4.36 µM, a TGI (SF-268 CNS) of 19.5 µM and a TGI (HCT-116 colon) of 16.3 µM. It also gave a TGI (A549 NSCLC) of 22.6 µM, a TGI (SNB-75 CNS) of 10 µM and a TGI (M14 melanoma) of 3.06 µM. The TGI (HCT-15 colon) was 12.8 µM, the TGI (HOP-92 NSCLC) was 13.4 µM and the TGI (NCI-H522 lung) was 14.1 µM. For the same compound, the TGI (KM12 colon) was 8.76 µM, the TGI (NCI-H460 lung) was 16.2 µM and the TGI (HL-60(TB) leukemia) was 4.3 µM. It also gave a TGI (T-47D breast) of 13.5 µM, a TGI (NCI-H23 lung) of 27.7 µM and a TGI (LOX IMVI melanoma) of 5.77 µM. For the same compound, the TGI (NCI/ADR-RES ovarian) was 23.3 µM, the TGI (UACC-62 melanoma) was 3.77 µM and the TGI (EKVX NSCLC) was 26.3 µM. For the same compound, the TGI (HS 578T breast) was 18.4 µM, the TGI (SK-OV-3 ovarian) was 26.5 µM and the TGI (TK-10 renal) was 24.7 µM. The TGI (SK-MEL-5 melanoma) was 3.04 µM, the TGI (OVCAR-4 ovarian) was 19.3 µM and the TGI (SK-MEL-28 melanoma) was 3.6 µM. It also gave a TGI (DU-145 prostate) of 18.2 µM, a TGI (SF-295 CNS) of 17.8 µM and a TGI (CCRF-CEM leukemia) of 8.39 µM. For the same compound, the TGI (RXF 393 renal) was 16.1 µM, the TGI (SW-620 colon) was 16.8 µM and the TGI (U251 CNS) was 11.9 µM. For the same compound, the TGI (K-562 leukemia) was 4.56 µM, the TGI (MOLT-4 leukemia) was 5.85 µM and the TGI (ACHN renal) was 12.3 µM. The TGI (MDA-N) was 3.59 µM, the TGI (PC-3 prostate) was 10.5 µM and the TGI (MCF7 breast) was 5.26 µM. It also gave a TGI (RPMI-8226 leukemia) of 5.45 µM, a TGI (HOP-62 NSCLC) of 25.1 µM and a TGI (UO-31 renal) of 19 µM. It also gave a TGI (786-0 renal) of 23.6 µM, a TGI (SK-MEL-2 melanoma) of 9.66 µM and a TGI (COLO 205 colon) of 3.13 µM. It also gave a TGI (SN12C renal) of 22.2 µM, a TGI (MALME-3M melanoma) of 3.17 µM and a TGI (OVCAR-8 ovarian) of 22.1 µM. It also gave a TGI (SF-539 CNS) of 16.8 µM.

For `COc1ccc(CC(COS(=O)(=O)c2ccc(C)cc2)NS(=O)(=O)c2ccc(C)cc2)cc1` (configuration not stated), the TGI (A498 renal) was 35.8 µM, the TGI (IGROV1 ovarian) was 30.1 µM and the TGI (HT29 colon) was greater than 50.9 µM. For the same compound, the TGI (OVCAR-3 ovarian) was 27.8 µM, the TGI (OVCAR-5 ovarian) was 39.9 µM and the TGI (NCI-H226 lung) was 27.7 µM. It also gave a TGI (SNB-19 CNS) of 32.6 µM, a TGI (UACC-257 melanoma) of 67.1 µM and a TGI (MDA-MB-231 breast) greater than 84.5 µM. It also gave a TGI (HCC-2998 colon) of 29.5 µM, a TGI (CAKI-1 renal) greater than 60.8 µM and a TGI (BT-549 breast) of 23.7 µM. The TGI (MDA-MB-435) was 28.5 µM, the TGI (SF-268 CNS) was 39 µM and the TGI (HCT-116 colon) was greater than 48.4 µM. The TGI (A549 NSCLC) was greater than 62.2 µM, the TGI (SNB-75 CNS) was 28.4 µM and the TGI (M14 melanoma) was 29.6 µM. For the same compound, the TGI (HCT-15 colon) was 41.1 µM, the TGI (HOP-92 NSCLC) was 19.9 µM and the TGI (NCI-H522 lung) was 22.9 µM. For the same compound, the TGI (KM12 colon) was greater than 77 µM, the TGI (NCI-H460 lung) was 55.2 µM and the TGI (T-47D breast) was 21 µM. It also gave a TGI (NCI-H23 lung) of 40.8 µM, a TGI (LOX IMVI melanoma) greater than 100 µM and a TGI (NCI/ADR-RES ovarian) greater than 52.7 µM. For the same compound, the TGI (UACC-62 melanoma) was 43.8 µM, the TGI (EKVX NSCLC) was 31.6 µM and the TGI (HS 578T breast) was 58.8 µM. For the same compound, the TGI (SK-OV-3 ovarian) was 43.7 µM, the TGI (TK-10 renal) was 43.6 µM and the TGI (SK-MEL-5 melanoma) was 24.6 µM. For the same compound, the TGI (OVCAR-4 ovarian) was 41.9 µM, the TGI (SK-MEL-28 melanoma) was 35.2 µM and the TGI (DU-145 prostate) was 28.9 µM. The TGI (SF-295 CNS) was 33.6 µM, the TGI (RXF 393 renal) was 17.1 µM and the TGI (SW-620 colon) was 27 µM. It also gave a TGI (U251 CNS) of 26.2 µM, a TGI (K-562 leukemia) greater than 100 µM and a TGI (MOLT-4 leukemia) greater than 100 µM. It also gave a TGI (ACHN renal) of 49.2 µM, a TGI (MDA-N) greater than 62.6 µM and a TGI (PC-3 prostate) of 38.9 µM. It also gave a TGI (MCF7 breast) greater than 69.7 µM, a TGI (RPMI-8226 leukemia) greater than 100 µM and a TGI (HOP-62 NSCLC) of 41.2 µM. It also gave a TGI (UO-31 renal) of 40.2 µM, a TGI (786-0 renal) of 53.1 µM and a TGI (SK-MEL-2 melanoma) of 44.7 µM. It also gave a TGI (COLO 205 colon) of 34.3 µM, a TGI (SN12C renal) of 36.1 µM and a TGI (MALME-3M melanoma) of 27.3 µM. It also gave a TGI (OVCAR-8 ovarian) greater than 100 µM and a TGI (SF-539 CNS) greater than 100 µM.

`CC(C)CCNC(=O)c1ccc(CNC(=O)/C=C/c2ccc3c(c2)-c2ccccc2C3)cc1` gave a TGI (A498 renal) greater than 100 µM, a TGI (IGROV1 ovarian) greater than 100 µM and a TGI (HT29 colon) greater than 100 µM. The TGI (OVCAR-3 ovarian) was greater than 100 µM, the TGI (OVCAR-5 ovarian) was greater than 100 µM and the TGI (NCI-H226 lung) was greater than 100 µM. It also gave a TGI (SNB-19 CNS) greater than 100 µM, a TGI (UACC-257 melanoma) greater than 100 µM and a TGI (MDA-MB-231 breast) greater than 100 µM. For the same compound, the TGI (HCC-2998 colon) was greater than 100 µM, the TGI (CAKI-1 renal) was 78.9 µM and the TGI (BT-549 breast) was greater than 100 µM. For the same compound, the TGI (MDA-MB-435) was greater than 100 µM, the TGI (SF-268 CNS) was greater than 100 µM and the TGI (HCT-116 colon) was greater than 100 µM. The TGI (SR leukemia) was greater than 100 µM, the TGI (A549 NSCLC) was greater than 100 µM and the TGI (SNB-75 CNS) was 53.3 µM. For the same compound, the TGI (M14 melanoma) was greater than 100 µM, the TGI (HCT-15 colon) was greater than 100 µM and the TGI (HOP-92 NSCLC) was greater than 100 µM. It also gave a TGI (NCI-H522 lung) greater than 100 µM, a TGI (KM12 colon) greater than 100 µM and a TGI (NCI-H460 lung) greater than 100 µM. The TGI (T-47D breast) was greater than 100 µM, the TGI (NCI-H23 lung) was greater than 100 µM and the TGI (LOX IMVI melanoma) was greater than 100 µM. It also gave a TGI (NCI/ADR-RES ovarian) greater than 100 µM, a TGI (UACC-62 melanoma) greater than 100 µM and a TGI (EKVX NSCLC) greater than 100 µM. It also gave a TGI (HS 578T breast) greater than 100 µM, a TGI (SK-OV-3 ovarian) greater than 100 µM and a TGI (TK-10 renal) greater than 100 µM. The TGI (SK-MEL-5 melanoma) was greater than 100 µM, the TGI (OVCAR-4 ovarian) was 80.1 µM and the TGI (SK-MEL-28 melanoma) was greater than 100 µM. For the same compound, the TGI (DU-145 prostate) was greater than 100 µM, the TGI (SF-295 CNS) was greater than 100 µM and the TGI (CCRF-CEM leukemia) was greater than 100 µM. For the same compound, the TGI (RXF 393 renal) was 82.6 µM, the TGI (SW-620 colon) was greater than 100 µM and the TGI (U251 CNS) was 65.2 µM. The TGI (K-562 leukemia) was greater than 100 µM, the TGI (MOLT-4 leukemia) was greater than 100 µM and the TGI (ACHN renal) was greater than 100 µM. For the same compound, the TGI (MDA-N) was greater than 100 µM, the TGI (PC-3 prostate) was greater than 100 µM and the TGI (MCF7 breast) was greater than 100 µM. The TGI (RPMI-8226 leukemia) was greater than 100 µM, the TGI (HOP-62 NSCLC) was 44.8 µM and the TGI (UO-31 renal) was greater than 100 µM. For the same compound, the TGI (786-0 renal) was 81.1 µM, the TGI (SK-MEL-2 melanoma) was greater than 100 µM and the TGI (COLO 205 colon) was greater than 100 µM. The TGI (SN12C renal) was greater than 100 µM, the TGI (MALME-3M melanoma) was 45.8 µM and the TGI (OVCAR-8 ovarian) was 71.4 µM. The TGI (SF-539 CNS) was greater than 100 µM.
